These are literature values, as cited in Sander's compilation of Henry's law constants (doi:10.1021/es00169a013).

This series is described as follows: Henry solubility constant Hcp at 298.15 K (mol/(m3 Pa)). The following applies: reference: Dunnivant et al. (1988); cited value.

Molecules are shown by their SMILES.

With `Clc1cc(Cl)c(-c2c(Cl)cc(Cl)cc2Cl)c(Cl)c1` [2,2',4,4',6,6'-hexachlorobiphenyl], the “Henry solubility constant Hcp” value is 0.086.

`Clc1cccc(Cl)c1-c1c(Cl)cccc1Cl` [2,2',6,6'-tetrachlorobiphenyl]: the “Henry solubility constant Hcp” value is 0.067.

As for `Clc1cc(Cl)c(-c2cc(Cl)c(Cl)cc2Cl)cc1Cl` [2,2',4,4',5,5'-hexachlorobiphenyl], the “Henry solubility constant Hcp” value was 0.08.

As to `Clc1ccc(-c2ccc(Cl)cc2)cc1` [4,4'-dichlorobiphenyl], the “Henry solubility constant Hcp” value was 0.068.
